Values quoted from earlier work, collected in patent publication US20150320746A1, “PHARMACEUTICAL FORMULATION COMPRISING 2,3-DIMETHYL-6-(N,N-DIMETHYLAMINOETHYL)-6H-INDOLO-(2,3-B)QUINOXALINE” (priority 2011, published 2015).

Tested on: HSV-1

Nc1nc2c(ncn2COCCO)c(=O)[nH]1 [Acyclovir, acyclovir]
selectivity ratio for the inhibitory activity against HSV-1 in vitro: about 2000
